Laboratory results taken from the NIST ThermoML archive (doi:10.1021/je7006549).

Assay: mn = molality of the nth substance listed, in mol/kg
Details: 101 kPa, Liquid

Cc1ccccc1C [1,2-dimethylbenzene] + CC1=CC(=O)c2ccccc2C1=O
m2 = 0
Details | mass density [kg/m3] | viscosity [mPa·s]
303.15 K | 872.1 | 0.7404
308.15 K | 867.7 | 0.69
313.15 K | 864 | 0.6451
318.15 K | 859.7 | 0.6117
323.15 K | 855.5 | 0.5711
328.15 K | 851.2 | 0.5433
333.15 K | 847.1 | 0.5105

Cc1cccc(C)c1 [1,3-dimethylbenzene] + CC1=CC(=O)c2ccccc2C1=O
m2 = 0
Details | mass density [kg/m3] | viscosity [mPa·s]
303.15 K | 855.6 | 0.549
308.15 K | 851.1 | 0.5201
313.15 K | 846.9 | 0.4967
318.15 K | 842.4 | 0.4817
323.15 K | 838.3 | 0.444
328.15 K | 833.7 | 0.435
333.15 K | 829.6 | 0.413

Cc1ccc(C)cc1 [1,4-dimethylbenzene] + CC1=CC(=O)c2ccccc2C1=O
m2 = 0
Details | mass density [kg/m3] | viscosity [mPa·s]
303.15 K | 852 | 0.5726
308.15 K | 847.7 | 0.5374
313.15 K | 843.2 | 0.5178
318.15 K | 838.7 | 0.4882
323.15 K | 834.5 | 0.4595
328.15 K | 829.9 | 0.4439
333.15 K | 825.6 | 0.4189

CC1=CC(=O)c2ccccc2C1=O [2-methyl-1,4-naphthalenedione] + CCc1ccccc1
Details | mass density [kg/m3] | viscosity [mPa·s]
303.15 K, m1 = 0.0451 | 859.9 | 0.6083
303.15 K, m1 = 0.0903 | 861.8 | 0.6164
303.15 K, m1 = 0.1354 | 863.7 | 0.6218
303.15 K, m1 = 0.1805 | 865.6 | 0.6317
303.15 K, m1 = 0.2256 | 867.5 | 0.6333
303.15 K, m1 = 0.271 | 869.4 | 0.6361
308.15 K, m1 = 0.0451 | 855.4 | 0.5735
308.15 K, m1 = 0.0903 | 857.3 | 0.5794
308.15 K, m1 = 0.1354 | 859.2 | 0.5853
308.15 K, m1 = 0.1805 | 861.1 | 0.5893
308.15 K, m1 = 0.2256 | 863 | 0.5948
308.15 K, m1 = 0.271 | 864.9 | 0.5991
313.15 K, m1 = 0.0451 | 851.4 | 0.5439
313.15 K, m1 = 0.0903 | 853.3 | 0.5484
313.15 K, m1 = 0.1354 | 855.2 | 0.5543
313.15 K, m1 = 0.1805 | 857.1 | 0.557
313.15 K, m1 = 0.2256 | 859 | 0.5611
313.15 K, m1 = 0.271 | 860.9 | 0.5673
318.15 K, m1 = 0.0451 | 846.6 | 0.5104
318.15 K, m1 = 0.0903 | 848.5 | 0.5148
318.15 K, m1 = 0.1354 | 850.4 | 0.5192
318.15 K, m1 = 0.1805 | 852.3 | 0.5241
318.15 K, m1 = 0.2256 | 854.2 | 0.5283
318.15 K, m1 = 0.271 | 856.1 | 0.533
323.15 K, m1 = 0.0451 | 842.4 | 0.4832
323.15 K, m1 = 0.0903 | 844.3 | 0.4881
323.15 K, m1 = 0.1354 | 846.2 | 0.4937
323.15 K, m1 = 0.1805 | 848.1 | 0.4969
323.15 K, m1 = 0.2256 | 850 | 0.5015
323.15 K, m1 = 0.271 | 851.9 | 0.5054
328.15 K, m1 = 0.0451 | 837.8 | 0.4615
328.15 K, m1 = 0.0903 | 839.7 | 0.4648
328.15 K, m1 = 0.1354 | 841.6 | 0.4715
328.15 K, m1 = 0.1805 | 843.5 | 0.474
328.15 K, m1 = 0.2256 | 845.4 | 0.4758
328.15 K, m1 = 0.271 | 847.3 | 0.4806
333.15 K, m1 = 0.0451 | 833.5 | 0.4405
333.15 K, m1 = 0.0903 | 835.4 | 0.444
333.15 K, m1 = 0.1354 | 837.3 | 0.4475
333.15 K, m1 = 0.1805 | 839.2 | 0.451
333.15 K, m1 = 0.2256 | 841.1 | 0.4546
333.15 K, m1 = 0.271 | 843 | 0.4581

CC1=CC(=O)c2ccccc2C1=O [2-methyl-1,4-naphthalenedione] + Cc1ccc(C)cc1
Details | mass density [kg/m3] | viscosity [mPa·s]
303.15 K, m1 = 0.0454 | 854 | 0.5859
303.15 K, m1 = 0.0902 | 856 | 0.5904
303.15 K, m1 = 0.1361 | 858.1 | 0.5958
303.15 K, m1 = 0.1815 | 860.1 | 0.6048
303.15 K, m1 = 0.2267 | 862.1 | 0.6092
303.15 K, m1 = 0.2724 | 864.1 | 0.6161
308.15 K, m1 = 0.0454 | 849.7 | 0.5528
308.15 K, m1 = 0.0902 | 851.7 | 0.5581
308.15 K, m1 = 0.1361 | 853.8 | 0.5631
308.15 K, m1 = 0.1815 | 855.8 | 0.5716
308.15 K, m1 = 0.2267 | 857.8 | 0.5748
308.15 K, m1 = 0.2724 | 859.8 | 0.582
313.15 K, m1 = 0.0454 | 845.2 | 0.5222
313.15 K, m1 = 0.0902 | 847.2 | 0.5274
313.15 K, m1 = 0.1361 | 849.3 | 0.5349
313.15 K, m1 = 0.1815 | 851.3 | 0.5396
313.15 K, m1 = 0.2267 | 853.3 | 0.543
313.15 K, m1 = 0.2724 | 855.3 | 0.5477
318.15 K, m1 = 0.0454 | 840.7 | 0.4999
318.15 K, m1 = 0.0902 | 842.7 | 0.5047
318.15 K, m1 = 0.1361 | 844.8 | 0.5097
318.15 K, m1 = 0.1815 | 846.8 | 0.5152
318.15 K, m1 = 0.2267 | 848.8 | 0.5183
318.15 K, m1 = 0.2724 | 850.8 | 0.5242
323.15 K, m1 = 0.0454 | 836.5 | 0.4686
323.15 K, m1 = 0.0902 | 838.5 | 0.4737
323.15 K, m1 = 0.1361 | 840.6 | 0.477
323.15 K, m1 = 0.1815 | 842.6 | 0.4824
323.15 K, m1 = 0.2267 | 844.6 | 0.4864
323.15 K, m1 = 0.2724 | 846.6 | 0.4907
328.15 K, m1 = 0.0454 | 831.9 | 0.4467
328.15 K, m1 = 0.0902 | 833.9 | 0.4509
328.15 K, m1 = 0.1361 | 836 | 0.456
328.15 K, m1 = 0.1815 | 838 | 0.4615
328.15 K, m1 = 0.2267 | 840 | 0.4633
328.15 K, m1 = 0.2724 | 842 | 0.4698
333.15 K, m1 = 0.0454 | 827.6 | 0.4225
333.15 K, m1 = 0.0902 | 829.6 | 0.4258
333.15 K, m1 = 0.1361 | 831.7 | 0.4309
333.15 K, m1 = 0.1815 | 833.7 | 0.4364
333.15 K, m1 = 0.2267 | 835.7 | 0.4384
333.15 K, m1 = 0.2724 | 837.7 | 0.4429
